According to patent US20210238162A1, “CHEMICAL COMPOUNDS” (GlaxoSmithKline Intellectual Property Development Limited, priority 2015, published 2021):
Where two headings read alike, the source gives them in different places.

Molecular target: T1, haematopoietic prostaglandin D synthase (H-PGDS) (Homo sapiens, UniProt O60760)
T1 construct: Full length human H-PGDS cDNA (Invitrogen Ultimate ORF IOH13026) was amplified by PCR; made in house; host or cells: E. coli BL21 (DE3*), vector pET22b+
Assay: H-PGDS RapidFire High Throughput Mass Spectrometry Assay
Assay type: biochemical
How it was run: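 PGH2 (~10 μM burst) generated in situ from arachidonic acid by FLAG-tagged human COX-2 (Sf9-expressed), then converted to PGD2 by full-length human His-tagged H-PGDS from E. coli. PGD2 and PGF2α (substrate surrogate) quantified by RapidFire SPE-triple quadrupole MS; percent conversion calculated.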

[1] = H-PGDS RapidFire MS assay, mean pIC50, read-out: Potency Range (mean pIC50) (converted)
[2] = in at least one experimental run, read-out: H-PGDS pIC50 value (converted)

T1 sequence (O60760 whole entry): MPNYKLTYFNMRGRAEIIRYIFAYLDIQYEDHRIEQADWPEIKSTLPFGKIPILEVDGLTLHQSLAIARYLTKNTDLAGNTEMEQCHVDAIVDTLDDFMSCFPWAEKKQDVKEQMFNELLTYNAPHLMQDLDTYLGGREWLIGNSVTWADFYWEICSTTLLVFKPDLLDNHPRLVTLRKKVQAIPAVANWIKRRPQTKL

| SMILES | IC50 [1] [nM] | IC50 [2] [nM] |
| --- | --- | --- |
| CC(C)(O)[C@H]1CC[C@H](NC(=O)c2cnc3cc(Br)ccc3c2)CC1 [Example 191, 7-Bromo-N-(trans-4-(2-hydroxypropan-2-yl)cyclohexyl)quinoline-3-carboxamide] | 10 to 79.4 |  |
| CC(C)(O)[C@H]1CC[C@H](NC(=O)c2cnc3cc(C4CC4)ccc3c2)CC1 [Example 192, 7-Cyclopropyl-N-(trans-4-(2-hydroxypropan-2-yl)cyclohexyl)quinoline-3-carboxamide] | < 10 |  |
| CC(C)(O)[C@H]1CC[C@H](NC(=O)c2cnc3cc(F)ccc3c2)CC1 [Example 193, 7-Fluoro-N-(trans-4-(2-hydroxypropan-2-yl)cyclohexyl)quinoline-3-carboxamide] |  | 2000 |
| CC(C)(O)[C@H]1CC[C@H](NC(=O)c2cnc3cc(N4CCC4)ccc3c2)CC1 [Example 194, 7-(Azetidin-1-yl)-N-(trans-4-(2-hydroxypropan-2-yl)cyclohexyl)quinoline-3-carboxamide] | < 10 |  |
| CC(C)(O)[C@H]1CC[C@H](NC(=O)c2cnc3cc4c(cc3c2)OCO4)CC1 [Example 195, N-(trans-4-(2-Hydroxypropan-2-yl)cyclohexyl)-[1,3]dioxolo[4,5-q]quinoline-7-carboxamide] | 100 to 1000 |  |
| CN(C)c1ccc2cc(C(=O)N[C@H]3CC[C@H](C(C)(C)O)CC3)cnc2c1 [Example 196, 7-(Dimethylamino)-N-(trans-4-(2-hydroxypropan-2-yl)cyclohexyl)quinoline-3-carboxamide] | < 10 |  |
| CC(C)(O)[C@H]1CC[C@H](NC(=O)c2cnc3cc(C4CCC4)ccc3c2)CC1 [Example 197, 7-Cyclobutyl-N-(trans-4-(2-hydroxypropan-2-yl)cyclohexyl)quinoline-3-carboxamide] | 10 to 79.4 |  |
| COc1ccc2cc(C(=O)N[C@H]3CC[C@H](C(C)(C)O)CC3)cnc2c1F [Example 202, 8-Fluoro-N-(trans-4-(2-hydroxypropan-2-yl)cyclohexyl)-7-methoxyquinoline-3-carboxamide] | 10 to 79.4 |  |
| CC(C)(O)[C@H]1CC[C@H](NC(=O)c2cnc3cc(Cl)c(Cl)cc3c2)CC1 [Example 202A, 6,7-Dichloro-N-(trans-4-(2-hydroxypropan-2-VI)cyclohexyl)quinoline-3-carboxamide] | 10 to 79.4 |  |
| CC(C)(O)[C@H]1CC[C@H](NC(=O)c2cnc3cc(Cl)ccc3c2)CC1 [Example 204, 7-Chloro-N-(trans-4-(2-hydroxypropan-2-yl)cyclohexyl)quinoline-3-carboxamide] | 100 to 1000 | 158 |
| C[C@@H]1CNC(=O)[C@H]1NC(=O)c1cnc2cc(N3CC[C@@H]3C)c(Cl)cc2c1 [Example 205, 6-Chloro-N-((3S,4R)-4-methyl-2-oxopyrrolidin-3-yl)-7-((S)-2-methylazetidin-1-yl)quinoline-3-carboxamide] | < 10 |  |
| C[C@@H]1CNC(=O)[C@H]1NC(=O)c1cnc2cc(N3CC(F)C3)c(F)cc2c1 [Example 206, 6-Fluoro-7-(3-fluoroazetidin-1-yl)-N-((3S,4R)-4-methyl-2-oxopyrrolidin-3-yl)quinoline-3-carboxamide] | 10 to 79.4 |  |
| CC1CN(c2cc3ncc(C(=O)N[C@@H]4C(=O)NC[C@H]4C)cc3cc2F)C1 [Example 207, 6-Fluoro-N-((3S,4R)-4-methyl-2-oxopyrrolidin-3-yl)-7-(3-methylazetidin-1-yl)quinoline-3-carboxamide] | 100 to 1000 |  |
| C[N+](C)([O-])[C@H]1CC[C@H](NC(=O)c2cnc3cc(OC(F)F)c(Cl)cc3c2)CC1 [Example 208, trans-4-(6-Chloro-7-(difluoromethoxy)quinoline-3-carboxamido)-N,N-dimethylcyclohexanamine oxide] | 10 to 79.4 |  |
| CNc1cc2ncc(C(=O)N[C@H]3CC[C@H](C(C)(C)O)CC3)cc2cc1Cl [Example 209] | < 10 |  |
| O=C(N[C@H]1CC[C@H](C(=O)N2CCOCC2)CC1)c1cnc2cc(OC(F)F)c(Cl)cc2c1 [Example 210, 6-Chloro-7-(difluoromethoxy)-N-((trans)-4-(morpholine-4-carbonyl)cyclohexyl)quinoline-3-carboxamide] | < 10 |  |
| CN1CCN(C(=O)[C@H]2CC[C@H](NC(=O)c3cnc4cc(OC(F)F)c(Cl)cc4c3)CC2)CC1 [Example 211, 6-Chloro-7-(difluoromethoxy)-N-((trans)-4-(4-methylpiperazine-1-carbonyl)cyclohexyl)quinoline-3-carboxamide] | 10 to 79.4 |  |
| CC(C)Nc1cc2ncc(C(=O)N[C@H]3CC[C@H](C(C)(C)O)CC3)cc2cc1Cl [Example 212, 6-Chloro-N-((trans)-4-(2-hydroxypropan-2-yl)cyclohexyl)-7-(isopropylamino)quinoline-3-carboxamide] | < 10 |  |

| SMILES | IC50 [1] [nM] | IC50 [2] [nM] |
| --- | --- | --- |
| CC(C)(O)[C@H]1CC[C@H](NC(=O)c2cnc3cc(NC4CC4)c(Cl)cc3c2)CC1 [Example 213, 6-Chloro-7-(cyclopropylamino)-N-((trans)-4-(2-hydroxypropan-2-yl)cyclohexyl)quinoline-3-carboxamide] | < 10 |  |
| O=C(N[C@H]1C[C@H](N2CC(O)(C(F)(F)F)C2)C1)c1cnc2cc(OC(F)F)c(Cl)cc2c1 [Example 214, 6-Chloro-7-(difluoromethoxy)-N-((trans)-3-(3-hydroxy-3-(trifluoromethyl)azetidin-1-yl)cyclobutyl)quinoline-3-carboxamide] | < 10 | 6.31 |
| CC(C)(O)[C@H]1CC[C@H](NC(=O)c2cnc3cc(OC(F)(F)F)c(Cl)cc3c2)CC1 [Example 215B, 6-Chloro-N-((trans)-4-(2-hydroxypropan-2-yl)cyclohexyl)-7-(trifluoromethoxy)quinoline-3-carboxamide] | < 10 |  |
| CC(C)(O)[C@H]1CC[C@H](NC(=O)c2cnc3c(Cl)c(OC(F)F)ccc3c2)CC1 [Example 216, 8-Chloro-7-(difluoromethoxy)-N-((trans)-4-(2-hydroxypropan-2-yl)cyclohexyl)quinoline-3-carboxamide] | 10 to 79.4 |  |
| CC(C)(O)[C@H]1CC[C@H](NC(=O)c2cnc3c(Cl)c(OC(F)F)c(Cl)cc3c2)CC1 [Example 217, 6,8-Dichloro-7-(difluoromethoxy)-N-((trans)-4-(2-hydroxypropan-2-yl)cyclohexyl)quinoline-3-carboxamide] | < 10 |  |
| CCOc1ccc2cc(C(=O)N[C@H]3CC[C@H](C(C)(C)O)CC3)cnc2c1Cl [Example 218, 8-Chloro-7-ethoxy-N-(trans-4-(2-hydroxypropan-2-yl)cyclohexyl)quinoline-3-carboxamide] | 10 to 79.4 |  |
| CC(C)(O)C(=O)N1CCC(NC(=O)c2cnc3cc(OC(F)F)c(Cl)cc3c2)CC1 [Example 220, 6-Chloro-7-(difluoromethoxy)-N-(1-(2-hydroxy-2-methylpropanoyl)piperidin-4-yl)quinoline-3-carboxamide] | < 10 |  |
| CC(C)(O)C(=O)N1CC(NC(=O)c2cnc3cc(OC(F)F)c(Cl)cc3c2)C1 [Example 221, 6-Chloro-7-(difluoromethoxy)-N-(1-(2-hydroxy-2-methylpropanoyl)azetidin-3-yl)quinoline-3-carboxamide] | 100 to 1000 |  |
| CC(C)(O)[C@H]1CC[C@H](NC(=O)c2cnc3cc(C4CC4(F)F)c(Cl)cc3c2)CC1 (stereo partly drawn) [Example 222, 6-Chloro-7-(2,2-difluorocyclopropyl)-N-((trans)-4-(2-hydroxypropan-2-yl)cyclohexyl)quinoline-3-carboxamide] | 10 to 79.4 | 63.1 |
| O=C(N[C@H]1CC[C@](O)(C(F)(F)F)CC1)c1cnc2cc(OC(F)F)c(Cl)cc2c1 [Example 223, 6-Chloro-7-(difluoromethoxy)-N-((cis)-4-hydroxy-4-(trifluoromethyl)cyclohexyl)quinoline-3-carboxamide] | 10 to 79.4 |  |
| CC(C)(O)C(=O)N1CCN(NC(=O)c2cnc3cc(OC(F)F)c(Cl)cc3c2)CC1 [Example 224, 6-Chloro-7-(difluoromethoxy)-N-(4-(2-hydroxy-2-methylpropanoyl)piperazin-1-yl)quinoline-3-carboxamide] | 10 to 79.4 |  |
| C=Cc1cc2ncc(C(=O)N[C@H]3CC[C@H](C(C)(C)O)CC3)cc2cc1Cl [Example 225, 6-Chloro-N-((trans)-4-(2-hydroxypropan-2-yl)cyclohexyl)-7-vinylquinoline-3-carboxamide] | 10 to 79.4 |  |
| CC(C)(O)C(=O)N[C@H]1C[C@H](NC(=O)c2cnc3cc(OC(F)F)c(Cl)cc3c2)C1 [Example 226, 6-Chloro-7-(difluoromethoxy)-N-(trans-3-(2-hydroxy-2-methylpropanamido)cyclobutyl)quinoline-3-carboxamide] | 10 to 79.4 |  |
| O=C(N[C@H]1CC[C@@](O)(C(F)(F)F)CC1)c1cnc2cc(OC(F)F)c(Cl)cc2c1 [Example 227, 6-Chloro-7-(difluoromethoxy)-N-((trans)-4-hydroxy-4-(trifluoromethyl)cyclohexyl)quinoline-3-carboxamide] | 10 to 79.4 |  |
| Cc1cc2cc(C(=O)N[C@H]3CC[C@H](C(C)(C)O)CC3)cnc2c(Cl)c1OC(F)F [Example 228, 8-Chloro-7-(difluoromethoxy)-N-((trans)-4-(2-hydroxypropan-2-yl)cyclohexyl)-6-methylquinoline-3-carboxamide] | 10 to 79.4 |  |
| Cc1c(OC(F)F)c(Cl)cc2cc(C(=O)N[C@H]3CC[C@H](C(C)(C)O)CC3)cnc12 [Example 229, 6-Chloro-7-(difluoromethoxy)-N-((trans)-4-(2-hydroxypropan-2-yl)cyclohexyl)-8-methylquinoline-3-carboxamide] | 10 to 79.4 |  |
| CC(C)(F)c1cc2ncc(C(=O)N[C@H]3CC[C@H](C(C)(C)O)CC3)cc2cc1Cl [Example 230, 6-Chloro-7-(2-fluoropropan-2-yl)-N-((trans)-4-(2-hydroxypropan-2-yl)cyclohexyl)quinoline-3-carboxamide] | < 10 |  |
